Measured values from ChEMBL document CHEMBL1201862, “PubChem BioAssay data set” (2004).
Counter-ions that a name gives are not always drawn.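 Step 1: Grow cells in 96-well plates. Step 2: Expose to compound for 48 hours at 5 concentrations. Step 3: Interpolate endpoints linearly; if unreached, use highest concentration. Abbreviation: GI50, concentration required for 50% inhibition of growth.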 The source made the active and inactive calls. Cut-off read from the data, not from the text of the source: active = GI50 up to about 1.1 µM and inactive = higher.

Tests used:
Test in all cases: inhibition of tumour cell growth, NCI panel, 48 h
DU-145 = tested on: DU-145
Hs-578T = tested on: Hs-578T
MDA-MB-435 = tested on: MDA-MB-435
MDA-N = tested on: MDA-N
T47D = tested on: T47D
DMS-114 = tested on: DMS-114
DMS-273 = tested on: DMS-273
SNB-78 = tested on: SNB-78

Compound | GI50 (DU-145) | GI50 (Hs-578T) | GI50 (MDA-MB-435) | GI50 (MDA-N) | GI50 (T47D) | GI50 (DMS-114) | GI50 (DMS-273) | GI50 (SNB-78)
CC(C)=CCc1c2c(c(O)c3c(=O)c4c(oc13)-c1ccc(O)cc1OC4C=C(C)C)C=CC(C)(C)O2 (stereo not given) | 14 µM (inactive) | 2.37 µM (inactive) | 10.6 µM (inactive) | 13.2 µM (inactive) | 8.79 µM (inactive) | – | – | –
CSc1nc(=O)n(CCC#N)nc1SC | 51.8 µM (inactive) | 27.6 µM (inactive) | 23.1 µM (inactive) | 20.4 µM (inactive) | 24.3 µM (inactive) | – | – | –
CCN(CC)CCOC(NC(C)=O)(c1ccccc1)c1ccccc1 | > 100 µM (inactive) | > 100 µM (inactive) | > 100 µM (inactive) | – | > 100 µM (inactive) | – | – | –
COC(=O)c1c2c(cc3c1CC1(C3)Cc3cc4c(c(C(=O)OC)c3C1)CCC4)CCC2 | – | 65.9 µM (inactive) | > 100 µM (inactive) | > 100 µM (inactive) | > 100 µM (inactive) | – | – | –
Nc1nc(Cl)c(N)c(NC23CC4CC(CC(C4)C2)C3)n1 | 2.22 µM (inactive) | 4.4 µM (inactive) | 1.41 µM (inactive) | 1.58 µM (inactive) | 1.34 µM (inactive) | – | – | –
COC(=O)c1cc(CC(C)C)c2c(c1)[nH]c1ccccc12 | – | – | – | – | – | 50.4 µM (inactive) | 53.7 µM (inactive) | –
O=C(CSCC(=O)N/N=C/c1ccncc1)N/N=C/c1ccncc1 | > 100 µM (inactive) | > 100 µM (inactive) | > 100 µM (inactive) | – | > 100 µM (inactive) | – | – | –
COC(=O)c1cc(/C=C/C(=O)Cc2ccccc2)cn1S(=O)(=O)c1ccccc1 | > 100 µM (inactive) | > 100 µM (inactive) | – | > 100 µM (inactive) | > 100 µM (inactive) | – | – | –
O=C(NCCN(CCNC(=O)c1cccc(=O)n1O)CCN(CCNC(=O)c1cccc(=O)n1O)CCNC(=O)c1cccc(=O)n1O)c1cccc(=O)n1O | > 100 µM (inactive) | > 100 µM (inactive) | > 100 µM (inactive) | > 100 µM (inactive) | > 100 µM (inactive) | – | – | –
CC(=O)OC[C@@]12Cc3ccc(C)c(O)c3[C@]1(C)[C@@H](OC(C)=O)[C@]1(O)[C@H]([C@@H](OC(=O)c3ccccc3)[C@@H](C)[C@H]1OC(C)=O)[C@H]2OC(C)=O | > 50 µM (inactive) | > 50 µM (inactive) | > 50 µM (inactive) | – | > 50 µM (inactive) | – | – | –
Nc1nc(Cl)cc(NC2(CO)CCC2)n1 | > 100 µM (inactive) | > 100 µM (inactive) | > 100 µM (inactive) | > 100 µM (inactive) | > 100 µM (inactive) | – | – | –
C/C(=N\Nc1nc2ccccc2[nH]1)c1ccc2ccccc2n1 | 1.91 µM (inactive) | 10.8 µM (inactive) | 4.29 µM (inactive) | 3.97 µM (inactive) | 0.343 µM (active) | – | – | –
NC1=NCC(CN2CCCCC2)O1 (stereo not given) | – | > 100 µM (inactive) | > 100 µM (inactive) | > 100 µM (inactive) | > 100 µM (inactive) | – | – | –
COc1ccc(/C=C2\Sc3nnc(CNc4ccc(Cl)cc4)n3N=C2c2cc(F)c(Cl)cc2Cl)cc1OC | 71.6 µM (inactive) | 51.2 µM (inactive) | 27.2 µM (inactive) | 24 µM (inactive) | 44.3 µM (inactive) | – | – | –
Nc1cc(CO)cc(Nc2nc3ccc(Cl)cc3c3[nH]c4ccccc4c23)c1 | 3.65 µM (inactive) | 5.43 µM (inactive) | 3.85 µM (inactive) | 6.65 µM (inactive) | 3.74 µM (inactive) | – | – | –
CC1(C)C=Cc2c(cc3oc4ccc5c(c4c(=O)c3c2O)C=CC(C)(C)O5)O1 | > 100 µM (inactive) | > 100 µM (inactive) | > 100 µM (inactive) | > 100 µM (inactive) | > 100 µM (inactive) | – | – | –
CC(=O)NNc1nc(C)c(C(/C=C/c2ccc([N+](=O)[O-])cc2)=N/NC(N)=O)s1 | > 100 µM (inactive) | > 100 µM (inactive) | > 100 µM (inactive) | > 100 µM (inactive) | > 100 µM (inactive) | – | – | –
Cc1ccc(S(=O)(=O)NC(CO)C(=O)O)cc1 (stereo not given) | > 100 µM (inactive) | > 100 µM (inactive) | > 100 µM (inactive) | > 100 µM (inactive) | > 100 µM (inactive) | – | – | –
Cc1cccc(N(CCC#N)S(=O)(=O)c2ccccc2)c1 | > 100 µM (inactive) | > 100 µM (inactive) | > 100 µM (inactive) | > 100 µM (inactive) | > 100 µM (inactive) | – | – | –
O=C(NNC(=O)c1ccncc1)c1ccncc1 | > 100 µM (inactive) | > 100 µM (inactive) | > 100 µM (inactive) | > 100 µM (inactive) | > 100 µM (inactive) | – | – | –
Nc1ncn([C@H]2C[C@H](O)[C@@H](CO)O2)c(=O)n1 [DECITABINE] | 8.79 µM (inactive) | 3.32 µM (inactive) | 2.49 µM (inactive) | 1.46 µM (inactive) | 10.4 µM (inactive) | 371 µM (inactive) | – | 373 µM (inactive)
CNNCc1ccc(C(=O)NC(C)C)cc1 [PROCARBAZINE HYDROCHLORIDE] | > 500 µM (inactive) | > 500 µM (inactive) | > 379 µM (inactive) | > 500 µM (inactive) | > 500 µM (inactive) | – | > 500 µM (inactive) | > 500 µM (inactive)
